Reference: US11905281B2 (Amgen Inc., priority 2017, dated 2024)
pIC50: −log10 of the molar value.

Key:
[1] = target: GDP-bound KRAS protein (aa 1-169), containing both G12C and C118A amino acid substitutions (Homo sapiens, UniProt P01116, C118A/G12C); assay: Coupled Nucleotide Exchange Assay (Table 16 conditions: 5 min pre-incubation); type: biochemical; conditions: 5 min compound pre-incubation; SOS-mediated nucleotide exchange, AlphaScreen
Description: (§1) For compounds in Table 16, the following assay conditions were employed:
The assay plates were then read on a PerkinElmer EnVision Multilabel Reader, using AlphaScreen® technology, and data were analyzed using a 4-parameter logistic model to calculate IC50 values.

[2] = tested on: Phosphorylation of ERK1/2 in MIA PaCa-2 cells; assay: Phospho-ERK1/2 MSD Assay, MIA PaCa-2 (Table 16 conditions: 2 hours compound treatment); type: cell-based; conditions: MIA PaCa-2 cells, 10 ng/mL EGF for 10 min, read-out: p-ERK IC50 (MIA PaCa-2)
Description: as §1
Sixteen hours prior to compound treatment, MIA PaCa-2 or A549 cells were seeded in 96-well cell culture plates at a density of 25,000 cells/well and incubated at 37° C., 5% CO2. A compound dose-response titration was diluted in growth media, added to appropriate wells of a cell culture plate, and then incubated at 37° C., 5% CO2 for 2 hours. […] Phosphorylation of ERK1/2 in compound-treated lysates was assayed using Phospho-ERK1/2 Whole Cell Lysate kits (Meso Scale Discovery K151DWD) according to the manufacturer's protocol. Assay plates were read on a Meso Scale Discovery Sector Imager 6000, and data were analyzed using a 4-parameter logistic model to calculate IC50 values.

Sequence of GDP-bound KRAS protein (aa 1-169), containing both G12C and C118A amino acid substitutions (P01116 1-169 isoform P01116-2 G12C/C118A): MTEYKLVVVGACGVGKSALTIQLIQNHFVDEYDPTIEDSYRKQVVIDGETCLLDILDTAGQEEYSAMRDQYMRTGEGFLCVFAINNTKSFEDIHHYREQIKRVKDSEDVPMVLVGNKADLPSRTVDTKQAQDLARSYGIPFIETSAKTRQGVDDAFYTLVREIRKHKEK

Structure (SMILES)	IC50 [1]	pIC50 [2]	pIC50 [1]
C=CC(=O)N1CCN(c2nc(=O)n(-c3c(C)ccnc3C3CC3)c3nc(-c4ccccc4F)c(Cl)cc23)[C@@H](C)C1 (single isomer, unassigned) [Example 45-1]	0.089 µM	7.31	
C=CC(=O)N1CCN(c2nc(=O)n(-c3c(C)ccnc3C3CC3)c3nc(-c4ccccc4F)c(Cl)cc23)[C@@H](C)C1 (single isomer, unassigned) [Example 45-2]	0.727 µM	6.36	
C=CC(=O)N1CCN(c2nc(=O)n(-c3ccccc3C(C)(C)C)c3nc(-c4c(O)cccc4F)c(Cl)cc23)[C@@H](C)C1 (single isomer, unassigned) [Example 49-1]	2.58 µM		
C=CC(=O)N1CCN(c2nc(=O)n(-c3ccccc3C(C)(C)C)c3nc(-c4c(O)cccc4F)c(Cl)cc23)[C@@H](C)C1 (single isomer, unassigned) [Example 49-2]		7.29	6.93
C=CC(=O)N1CCN(c2nc(=O)n(-c3ccccc3C(C)C)c3nc(-c4ccccc4F)c(Cl)nc23)[C@@H](C)C1 (single isomer, unassigned) [Example 50-1]	0.117 µM		
C=CC(=O)N1CCN(c2nc(=O)n(-c3ccccc3C(C)C)c3nc(-c4ccccc4F)c(Cl)nc23)[C@@H](C)C1 (single isomer, unassigned) [Example 50-2]	3.69 µM		
C=CC(=O)N1CCN(c2nc(=O)n(-c3ccccc3C(C)C)c3nc(-c4ccccc4F)c(C)nc23)[C@@H](C)C1 (single isomer, unassigned) [Example 51-1]	11.2 µM		
C=CC(=O)N1CCN(c2nc(=O)n(-c3ccccc3C(C)C)c3nc(-c4ccccc4F)c(C)nc23)[C@@H](C)C1 (single isomer, unassigned) [Example 51-2]	0.221 µM		
C=CC(=O)N1CCN(c2nc(=O)n(-c3ccccc3C(C)C)c3nc(-c4c(O)cccc4F)c(C)cc23)[C@@H](C)C1 (single isomer, unassigned) [Example 52-1]	5.99 µM		
C=CC(=O)N1CCN(c2nc(=O)n(-c3ccccc3C(C)C)c3nc(-c4c(O)cccc4F)c(C)cc23)[C@@H](C)C1 (single isomer, unassigned) [Example 52-2]	0.146 µM		
C=CC(=O)N1CCN(c2nc(=O)n(-c3c(C)cnn3C(C)C)c3nc(-c4ccccc4F)c(Cl)cc23)[C@@H](C)C1 (single isomer, unassigned) [Example 53-1]	0.098 µM	7.03	
C=CC(=O)N1CCN(c2nc(=O)n(-c3c(C)cnn3C(C)C)c3nc(-c4ccccc4F)c(Cl)cc23)[C@@H](C)C1 (single isomer, unassigned) [Example 53-2]	0.320 µM	6.64	
C=CC(=O)N1CCN(c2nc(=O)n(-c3c(C)cccc3C(C)C)c3nc(-c4c(O)cccc4F)c(Cl)cc23)[C@@H](C)C1 [Example 39-1, 6-chloro-7-(2-fluoro-6-hydroxyphenyl)-1-(2-methyl-6-(2-propanyl)phenyl)-4-((2S)-2-methyl-4-(2-propenoyl)-1-piperazinyl)pyrido-[2,3-d]pyrimidin-2(1H)-one]		7.55	7.60
C=CC(=O)N1CCN(c2nc(=O)n(-c3c(C)cccc3C(C)C)c3nc(-c4c(O)cccc4F)c(Cl)cc23)[C@@H](C)C1 [Example 39-2, 6-chloro-7-(2-fluoro-6-hydroxyphenyl)-1-(2-methyl-6-(2-propanyl)phenyl)-4-((2S)-2-methyl-4-(2-propenoyl)-1-piperazinyl)pyrido-[2,3-d]pyrimidin-2(1H)-one]	0.222 µM	6.71	
C=CC(=O)N1CCN(c2nc(=O)n(-c3c(C)ccnc3C(C)C)c3nc(-c4ccccc4F)c(Cl)cc23)[C@@H](C)C1 [Example 40, 6-Chloro-7-(2-fluorophenyl)-1-(4-methyl-2-(2-propanyl)-3-pyridinyl)-4-((2S)-2-methyl-4-(2-propenoyl)-1-piperazinyl)pyrido[2,3-d]pyrimidin-2(1H)-one]	0.063 µM	7.54	
C=CC(=O)N1CCN(c2nc(=O)n(-c3c(C)ccnc3C(C)C)c3nc(-c4ccccc4F)c(Cl)cc23)[C@@H](C)C1 [Example 40-1, 6-chloro-7-(2-fluoro-phenyl)-1-(4-methyl-2-(2-propanyl)-3-pyridinyl)-4-((2S)-2-methyl-4-(2-propenoyl)-1-piperazinyl)pyrido-[2,3-d]pyrimidin-2(1H)-one]	0.057 µM	7.66	
C=CC(=O)N1CCN(c2nc(=O)n(-c3c(C)ccnc3C(C)C)c3nc(-c4ccccc4F)c(Cl)cc23)[C@@H](C)C1 [Example 40-2, 6-chloro-7-(2-fluoro-phenyl)-1-(4-methyl-2-(2-propanyl)-3-pyridinyl)-4-((2S)-2-methyl-4-(2-propenoyl)-1-piperazinyl)pyrido-[2,3-d]pyrimidin-2(1H)-one]	0.597 µM	6.49	
C=CC(=O)N1CCN(c2nc(=O)n(-c3c(C)ccnc3C(C)C)c3nc(-c4c(O)cccc4F)c(F)cc23)[C@@H](C)C1 [Example 41, 6-Fluoro-7-(2-fluoro-6-hydroxyphenyl)-1-(4-methyl-2-(2-propanyl)-3-pyridinyl)-4-((2S)-2-methyl-4-(2-propenoyl)-1-piperazinyl)pyrido[2,3-d]pyrimidin-2(1H)-one]		7.07	
C=CC(=O)N1CCN(c2nc(=O)n(-c3c(C)ccnc3C(C)C)c3nc(-c4c(O)cccc4F)c(F)cc23)[C@@H](C)C1 [Example 41-1, 6-fluoro-7-(2-fluoro-6-hydroxyphenyl)-1-(4-methyl-2-(2-propanyl)-3-pyridinyl)-4-((2S)-2-methyl-4-(2-propenoyl)-1-piperazinyl)pyrido-[2,3-d]pyrimidin-2(1H)-one]		7.14	
C=CC(=O)N1CCN(c2nc(=O)n(-c3c(C)ccnc3C(C)C)c3nc(-c4c(O)cccc4F)c(F)cc23)[C@@H](C)C1 [Example 41-2, 6-fluoro-7-(2-fluoro-6-hydroxyphenyl)-1-(4-methyl-2-(2-propanyl)-3-pyridinyl)-4-((2S)-2-methyl-4-(2-propenoyl)-1-piperazinyl)pyrido-[2,3-d]pyrimidin-2(1H)-one]		5.78	
C=CC(=O)N1CCN(c2nc(=O)n(-c3c(C)ccnc3C3CC3)c3nc(-c4c(O)cccc4F)c(F)cc23)[C@@H](C)C1 [Example 42-2, 1-(2-cyclopropyl-4-methyl-3-pyridinyl)-6-fluoro-7-(2-fluoro-6-hydroxyphenyl)-4-((2S)-2-methyl-4-(2-propenoyl)-1-piperazinyl)pyrido-[2,3-d]pyrimidin-2(1H)-one]	1.56 µM		
C=CC(=O)N1CCN(c2nc(=O)n(-c3ccccc3C(C)C)c3nc(-c4ccccc4F)c(Cl)nc23)[C@@H](C)C1 [Example 50, 6-Chloro-7-(2-fluorophenyl)-4-((2S)-2-methyl-4-(2-propenoyl)-1-piperazinyl)-1-(2-(2-propanyl)phenyl)-2(1H)-pteridinone]	0.276 µM		
C=CC(=O)N1CCN(c2nc(=O)n(-c3ccccc3C(C)C)c3nc(-c4c(O)cccc4F)c(C)cc23)[C@@H](C)C1 [Example 52, 7-(2-fluoro-6-hydroxyphenyl)-6-methyl-4-((2S)-2-methyl-4-(2-propenoyl)-1-piperazinyl)-1-(2-(2-propanyl)phenyl)pyrido[2,3-d]pyrimidin-2(1H)-one]	0.338 µM		
